Experimental data taken from EP4813979A1, “COMPOUND FOR EGFR PROTEIN DEGRADATION AND USE THEREOF” (TYK Medicines, Inc., priority 2023, dated 2025).

These molecules were tested on A431 (assay: Cell anti-proliferation experiment (CTG)). Details: Homo sapiens, A-431, 72 h, A431 (wild-type EGFR), class symbol.
Format: cell-based
Source text: (§1) H1975 has an EGFR: T790M/L858R double mutation, PC-9 has an EGFR exon 19 deletion, and HCC827 has an exon 19 deletion mutation. Baf3-19del- T790M -C797S (Baf3-DTC) is a stable Ba/F3 clone expressing exogenous EGFR gene bearing T790M, C797S, and […] triple amino acid mutations, purchased from KYinno. Baf3-L858R-T790M - C797S (Baf3-LTC) is a stable Ba/F3 clone expressing exogenous EGFR gene bearing […], T790M, and C797S triple mutations, purchased from KYinno. A549 is a wild-type EGFR, purchased from Nanjing Kebai Biotechnology. A431 is a wild-type EGFR, purchased from Shanghai Xinyu Biotechnology. CellCounting-Lite2.0, Trypsin EDTA, 37°C CO2 incubator, cell counter, EnVision Serial No. 1050454.
(§2) • A) Digested logarithmic phase cells with Trypsin EDTA, added culture medium to stop the reaction, and mixing well with a pipette to prepare a cell suspension. • B) Used Vi-cell to determine cell concentration, and prepared a suspension of 15,000-25,000 cells per milliliter according to the experimental purpose and cell characteristics. • C) After prepared the cell suspension, mixed it gently and added 100 µL to each well, so that the cell density to be tested is 1500-2500 per well.
(§3) • A) Weighed approximately 2 mg the compound and calculated the required volume of DMSO according to the formula: Compound mass (mg) * Compound purity (%) / Compound molecular weight * 1000. • B) Placed the inoculated cell culture plate into an incubator and incubated for about 24 hours. Then added compounds of varying concentrations. • C) Diluted the 10mM compound stock solution to […] with culture medium, and added the […] compound solution to the second column of the deep well plate in sequence, and added […] culture medium containing 0.5% DMSO to the third to eleventh columns. • D) Gradient dilution: Taked 125 µL solution from the second column and added it to the third column, mix well; then taked 125 µL solution from the third column and added it to the fourth column, repeated this operation until the tenth column. • E) Used a multichannel pipette, aspirated 25 µL the compound from the deep-well plate and added it to a 96-well culture plate. Repeated this process three times for each compound on the 96-well plate. This will ultimately create a concentration gradient of up to 10,000 nM at a 1:4 ratio on the 96-well plate.
(§4) • A) The effects of the compound were observed under an inverted microscope after the 96-well plate was incubated in an incubator for 72 hours. • B) Added 25 µL CTG solution to each well, placed on a shaker for 10 minutes, and read the […] of each well.
(§5) Calculate the % Cell Viability using the following formula: %Cell Viability = 100% × (Lum_Sample−Lum_LC)/(Lum_HC−Lum_LC) [formula] • Lum_HC: Cell readings from the 0.1% DMSO control group • Lum_Sample: Cell readings with added compound • Lum_LC: Blank culture medium reading
(§6) The IC50 value was obtained by curve fitting using GraphPad Prism 8 software.

Compound | IC50 [nM]
COc1nc(N2CCN(C(=O)CN3CCC(c4cc5c(cc4F)c(N4CCC(=O)NC4=O)nn5C)C(F)(F)C3)CC2)ccc1Nc1ncc(Cl)c(Nc2ccccc2P(C)(C)=O)n1 (stereo not shown) [TC-125] | 100 to 1000
CCc1cc(Nc2ncc(Cl)c(Nc3ccccc3P(C)(C)=O)n2)c(OCC(F)(F)F)nc1N1CCN(C(=O)CN2CCC(c3cc4c(cc3F)c(N3CCC(=O)NC3=O)nn4C)C(F)(F)C2)CC1 (stereo not shown) [TC-127] | > 1000
CCc1cc(Nc2ncc(Cl)c(Nc3ccccc3P(C)(C)=O)n2)c2c(c1N1CCN(C(=O)CN3CCC(c4cc5c(cc4F)c(N4CCC(=O)NC4=O)nn5C)C(F)(F)C3)CC1)CCO2 (stereo not shown) [TC-135] | > 1000
COc1cc(N2CCN(C(=O)CN3CCC(c4cc5c(cc4F)c(N4CCC(=O)NC4=O)nn5C)C(F)(F)C3)CC2)c(Cl)cc1Nc1ncc(Br)c(Nc2ccccc2P(C)(C)=O)n1 (stereo not shown) [TC-138] | > 1000

These molecules were tested on A549 (assay: Cell anti-proliferation experiment (CTG)). Details: Homo sapiens, A549, 72 h, A549 (wild-type EGFR), class symbol.
Format: cell-based
Source text: as §1, §2, §3, §4, §5, §6

Compound | IC50 [nM]
COc1nc(N2CCN(C(=O)CN3CCC(c4cc5c(cc4F)c(N4CCC(=O)NC4=O)nn5C)C(F)(F)C3)CC2)ccc1Nc1ncc(Cl)c(Nc2ccccc2P(C)(C)=O)n1 (stereo not shown) [TC-125] | 100 to 1000
CCc1cc(Nc2ncc(Cl)c(Nc3ccccc3P(C)(C)=O)n2)c(OCC(F)(F)F)nc1N1CCN(C(=O)CN2CCC(c3cc4c(cc3F)c(N3CCC(=O)NC3=O)nn4C)C(F)(F)C2)CC1 (stereo not shown) [TC-127] | > 1000
CCc1cc(Nc2ncc(Cl)c(Nc3ccccc3P(C)(C)=O)n2)c2c(c1N1CCN(C(=O)CN3CCC(c4cc5c(cc4F)c(N4CCC(=O)NC4=O)nn5C)C(F)(F)C3)CC1)CCO2 (stereo not shown) [TC-135] | > 1000
COc1cc(N2CCN(C(=O)CN3CCC(c4cc5c(cc4F)c(N4CCC(=O)NC4=O)nn5C)C(F)(F)C3)CC2)c(Cl)cc1Nc1ncc(Br)c(Nc2ccccc2P(C)(C)=O)n1 (stereo not shown) [TC-138] | > 1000

Each molecule was assayed on Baf3-19del- T790M -C797S (Baf3-DTC) (assay: Cell anti-proliferation experiment (CTG)). Details: 72 h, class symbol.
Format: cell-based
Source text: as §1, §2, §3, §4, §5, §6

Compound | IC50 [nM]
COc1nc(N2CCN(C(=O)CN3CCC(c4cc5c(cc4F)c(N4CCC(=O)NC4=O)nn5C)C(F)(F)C3)CC2)ccc1Nc1ncc(Cl)c(Nc2ccccc2P(C)(C)=O)n1 (stereo not shown) [TC-125] | 100 to 1000
CCc1cc(Nc2ncc(Cl)c(Nc3ccccc3P(C)(C)=O)n2)c(OCC(F)(F)F)nc1N1CCN(C(=O)CN2CCC(c3cc4c(cc3F)c(N3CCC(=O)NC3=O)nn4C)C(F)(F)C2)CC1 (stereo not shown) [TC-127] | 10 to 100
CCc1cc(Nc2ncc(Cl)c(Nc3ccccc3P(C)(C)=O)n2)c2c(c1N1CCN(C(=O)CN3CCC(c4cc5c(cc4F)c(N4CCC(=O)NC4=O)nn5C)C(F)(F)C3)CC1)CCO2 (stereo not shown) [TC-135] | < 10
COc1cc(N2CCN(C(=O)CN3CCC(c4cc5c(cc4F)c(N4CCC(=O)NC4=O)nn5C)C(F)(F)C3)CC2)c(Cl)cc1Nc1ncc(Br)c(Nc2ccccc2P(C)(C)=O)n1 (stereo not shown) [TC-138] | < 10

Each molecule was assayed on Baf3-L858R-T790M - C797S (Baf3-LTC) (assay: Cell anti-proliferation experiment (CTG)). Details: 72 h, class symbol.
Format: cell-based
Source text: as §1, §2, §3, §4, §5, §6

Compound | IC50 [nM]
COc1nc(N2CCN(C(=O)CN3CCC(c4cc5c(cc4F)c(N4CCC(=O)NC4=O)nn5C)C(F)(F)C3)CC2)ccc1Nc1ncc(Cl)c(Nc2ccccc2P(C)(C)=O)n1 (stereo not shown) [TC-125] | 10 to 100
CCc1cc(Nc2ncc(Cl)c(Nc3ccccc3P(C)(C)=O)n2)c(OCC(F)(F)F)nc1N1CCN(C(=O)CN2CCC(c3cc4c(cc3F)c(N3CCC(=O)NC3=O)nn4C)C(F)(F)C2)CC1 (stereo not shown) [TC-127] | 10 to 100
CCc1cc(Nc2ncc(Cl)c(Nc3ccccc3P(C)(C)=O)n2)c2c(c1N1CCN(C(=O)CN3CCC(c4cc5c(cc4F)c(N4CCC(=O)NC4=O)nn5C)C(F)(F)C3)CC1)CCO2 (stereo not shown) [TC-135] | < 10
COc1cc(N2CCN(C(=O)CN3CCC(c4cc5c(cc4F)c(N4CCC(=O)NC4=O)nn5C)C(F)(F)C3)CC2)c(Cl)cc1Nc1ncc(Br)c(Nc2ccccc2P(C)(C)=O)n1 (stereo not shown) [TC-138] | < 10

These molecules were tested on H1975 (assay: Cell anti-proliferation experiment (CTG)). Details: Homo sapiens, NCI-H1975, 72 h, H1975 (EGFR T790M/L858R), class symbol.
Format: cell-based
Source text: as §1, §2, §3, §4, §5, §6

Compound | IC50 [nM]
COc1nc(N2CCN(C(=O)CN3CCC(c4cc5c(cc4F)c(N4CCC(=O)NC4=O)nn5C)C(F)(F)C3)CC2)ccc1Nc1ncc(Cl)c(Nc2ccccc2P(C)(C)=O)n1 (stereo not shown) [TC-125] | 100 to 1000
CCc1cc(Nc2ncc(Cl)c(Nc3ccccc3P(C)(C)=O)n2)c(OCC(F)(F)F)nc1N1CCN(C(=O)CN2CCC(c3cc4c(cc3F)c(N3CCC(=O)NC3=O)nn4C)C(F)(F)C2)CC1 (stereo not shown) [TC-127] | 100 to 1000
CCc1cc(Nc2ncc(Cl)c(Nc3ccccc3P(C)(C)=O)n2)c2c(c1N1CCN(C(=O)CN3CCC(c4cc5c(cc4F)c(N4CCC(=O)NC4=O)nn5C)C(F)(F)C3)CC1)CCO2 (stereo not shown) [TC-135] | 10 to 100
COc1cc(N2CCN(C(=O)CN3CCC(c4cc5c(cc4F)c(N4CCC(=O)NC4=O)nn5C)C(F)(F)C3)CC2)c(Cl)cc1Nc1ncc(Br)c(Nc2ccccc2P(C)(C)=O)n1 (stereo not shown) [TC-138] | 10 to 100

Each molecule was assayed on HCC827 (assay: Cell anti-proliferation experiment (CTG)). Details: Homo sapiens, HCC827, 72 h, HCC827 (exon 19 deletion), class symbol.
Format: cell-based
Source text: as §1, §2, §3, §4, §5, §6

Compound | IC50 [nM]
COc1nc(N2CCN(C(=O)CN3CCC(c4cc5c(cc4F)c(N4CCC(=O)NC4=O)nn5C)C(F)(F)C3)CC2)ccc1Nc1ncc(Cl)c(Nc2ccccc2P(C)(C)=O)n1 (stereo not shown) [TC-125] | 100 to 1000
CCc1cc(Nc2ncc(Cl)c(Nc3ccccc3P(C)(C)=O)n2)c(OCC(F)(F)F)nc1N1CCN(C(=O)CN2CCC(c3cc4c(cc3F)c(N3CCC(=O)NC3=O)nn4C)C(F)(F)C2)CC1 (stereo not shown) [TC-127] | 100 to 1000
CCc1cc(Nc2ncc(Cl)c(Nc3ccccc3P(C)(C)=O)n2)c2c(c1N1CCN(C(=O)CN3CCC(c4cc5c(cc4F)c(N4CCC(=O)NC4=O)nn5C)C(F)(F)C3)CC1)CCO2 (stereo not shown) [TC-135] | 100 to 1000
COc1cc(N2CCN(C(=O)CN3CCC(c4cc5c(cc4F)c(N4CCC(=O)NC4=O)nn5C)C(F)(F)C3)CC2)c(Cl)cc1Nc1ncc(Br)c(Nc2ccccc2P(C)(C)=O)n1 (stereo not shown) [TC-138] | 100 to 1000

What follows are molecules tested on PC-9 (assay: Cell anti-proliferation experiment (CTG)). Details: Homo sapiens, PC-9, 72 h, PC-9 (EGFR exon 19 deletion), class symbol.
Format: cell-based
Source text: as §1, §2, §3, §4, §5, §6

Compound | IC50 [nM]
COc1nc(N2CCN(C(=O)CN3CCC(c4cc5c(cc4F)c(N4CCC(=O)NC4=O)nn5C)C(F)(F)C3)CC2)ccc1Nc1ncc(Cl)c(Nc2ccccc2P(C)(C)=O)n1 (stereo not shown) [TC-125] | 100 to 1000
CCc1cc(Nc2ncc(Cl)c(Nc3ccccc3P(C)(C)=O)n2)c(OCC(F)(F)F)nc1N1CCN(C(=O)CN2CCC(c3cc4c(cc3F)c(N3CCC(=O)NC3=O)nn4C)C(F)(F)C2)CC1 (stereo not shown) [TC-127] | > 1000
CCc1cc(Nc2ncc(Cl)c(Nc3ccccc3P(C)(C)=O)n2)c2c(c1N1CCN(C(=O)CN3CCC(c4cc5c(cc4F)c(N4CCC(=O)NC4=O)nn5C)C(F)(F)C3)CC1)CCO2 (stereo not shown) [TC-135] | > 1000
COc1cc(N2CCN(C(=O)CN3CCC(c4cc5c(cc4F)c(N4CCC(=O)NC4=O)nn5C)C(F)(F)C3)CC2)c(Cl)cc1Nc1ncc(Br)c(Nc2ccccc2P(C)(C)=O)n1 (stereo not shown) [TC-138] | 100 to 1000
